Laboratory results reported in publication PMC5635026, “Homo-PROTACs: bivalent small-molecule dimerizers of the VHL E3 ubiquitin ligase to induce self-degradation” (Nature Communications, 2017).

Experiments:
[1] = system: HIF-1α; assay: TMT MS proteomics in HeLa cells, HIF-1α level; format: cell-based, Human; settings: 1 µM, 10 h
Method: (§1) MS proteomics. Sample preparation. HeLa cells were seeded at 5 × 10^6 on a 10 cm plate 16 h before treatment. […] Cells were incubated at 37 °C and 5% CO2 for 10 h before harvesting. Cells were placed on ice and medium was removed and cells were washed twice with cold PBS. Cells were lysed in 0.5 ml of 100 mM Tris pH 8.0, 4% (w/v) SDS supplemented with protease inhibitor cocktail (Roche). The lysate was pulse sonicated briefly and then centrifuged at 17,000 × g for 15 min at 4 °C. The supernatant fraction of cell extract was snap-frozen in liquid nitrogen and stored in −80 °C freezer. Further sample processing, digestion, desalting, labeling and fractionation were performed as previously described.
nLC-MS/MS analysis. The TMT 10plex fractions were first analyzed as previously described. Briefly, the TMT 10plex fractions were analyzed sequentially on a Q Exactive HF Hybrid Quadrupole-Orbitrap Mass Spectrometer (Thermo Scientific) coupled to an UltiMate 3000 RSLCnano UHPLC system (Thermo Scientific) and EasySpray column (75 μm × 50 cm, PepMap RSLC C18 column, 2 μm, 100 Å, Thermo Scientific). The MS2 isolation window was set to 0.4 Da and the resolution set at 120,000. MS2 resolution was set at 60,000. […] After the first analysis, the TMT labeled fractions were re-analyzed on the Q-Exactive HF using the same instrument settings and a target list generated from a theoretical trypsin digest of VHL. […]

[2] = system: Leucine-rich repeat-containing protein 42 (LRRC42); assay: TMT MS proteomics in HeLa cells, LRRC42 abundance; format: cell-based, Homo sapiens; settings: 1 µM, 10 h, two replicates
Method: as §1
(§2) nLC-MS/MS analysis. The TMT 10plex fractions were first analyzed as previously described. Briefly, the TMT 10plex fractions were analyzed sequentially on a Q Exactive HF Hybrid Quadrupole-Orbitrap Mass Spectrometer (Thermo Scientific) coupled to an UltiMate 3000 RSLCnano UHPLC system (Thermo Scientific) and EasySpray column (75 μm × 50 cm, PepMap RSLC C18 column, 2 μm, 100 Å, Thermo Scientific). The MS2 isolation window was set to 0.4 Da and the resolution set at 120,000. MS2 resolution was set at 60,000. The AGC targets for MS1 and MS2 were set at 3e^6 ions and 1e5 ions, respectively. The normalized collision energy was set at 32%. […] After the first analysis, the TMT labeled fractions were re-analyzed on the Q-Exactive HF using the same instrument settings and a target list generated from a theoretical trypsin digest of VHL. […] After the second analysis, two fractions were further analyzed using a targeted SIM/ddMS2 method on the Q-Exactive HF. […]
(§3) Peptide and protein identification. All the raw MS data files from the three analyses were merged and searched against the Uniprot-sprot-Trembl-Human-Canonical database by Maxquant software 1.5.3.30 for protein identification and TMT reporter ion quantitation. […] Quantified proteins were filtered if the absolute fold-change difference between the two DMSO replicates was ≥ 1.5.

[3] = system: Putative glycerol kinase 5 (GK5); assay: TMT MS proteomics in HeLa cells, GK5 abundance; format: cell-based, Homo sapiens; settings: 1 µM, 10 h, two replicates
Method: as §1, §2, §3

[4] = system: Cullin2; assay: Immunoblot of Cullin2 protein level in HeLa cells after compound treatment; format: cell-based, Human; settings: for reduction of Cullin2 levels: 1 µM, 10 h
Method: Cell culture. Human cell lines HeLa, U2OS and HEK 293, purchased from ATCC, were propagated in DMEM supplemented with 10% fetal bovine serum (FBS), L- glutamine, 100 μg ml^−1 of penicillin/streptomycin at 37 °C and 5% CO2. Cells were maintained for no more than 30 passages. All cell lines were routinely tested for mycoplasma contamination using MycoAlert kit from Lonza. For compound treatment experiments, cells were transferred in six-well plates with either 3 × 10^5 or 5 × 10^5 cells per well in 2 ml of media. At 80% confluence, cells were treated with compounds at the desired concentration, reaching final DMSO concentration of 0.1% v/v. Cells were incubated at 37 °C and 5% CO2 for the desired time before harvesting.
Immunoblotting. Cells were lysed in lysis buffer (20 mM Tris pH 8, 150 mM NaCl, 1% Triton × 100) and a protease inhibitor cocktail (Roche) per 10 ml buffer. For protein extracts, the dishes were placed on ice. The media was aspirated and the tissue layer washed twice with ice-cold phosphate buffer saline (PBS). Lysis buffer (120 μl) was added and the cells detached from the surface with a cell scraper. After removal of the insoluble fraction by centrifugation, the protein concentration of the supernatant was determined by Pierce™ Coomassie (Bradford) Protein Assay Kit. Protein extracts were fractionated by SDS-PAGE on 4–12% Tris-Acetate NuPage® Novex® (Life Technologies) polyacrylamide gels and transferred to a nitrocellulose membrane using wet transfer. The membrane was then blocked with 5 % w/v Bovine serum albumin (BSA) in Tris-buffered saline (TBS) with 0.1% w/v Tween-20. […] Band quantification was performed using ImageJ software and reported as relative amount as ratio of the each protein band relative to the lane’s loading control. […]

Row | Compound | protein levels of HIF-1α relative to DMSO [1] | average normalized ratio to DMSO, LRRC42 [2] | average normalized ratio to DMSO, GK5 [3] | reduction of Cullin2 levels [4] | decrease of cellular levels of Cullin2 ([4]; dose-response, 4 or 24 h, Fig. 5a)
1 | Cc1ncsc1-c1ccc(CNC(=O)[C@@H]2C[C@@H](O)CN2C(=O)[C@@H](NC(=O)COCCOCCOCCOCC(=O)N[C@H](C(=O)N2C[C@H](O)C[C@H]2C(=O)NCc2ccc(-c3scnc3C)cc2)C(C)(C)C)C(C)(C)C)cc1 [CM09, N ^1 ,N ^14-bis((S)-1-((2S,4R)-4-hydroxy-2-((4-(4-methylthiazol-5-yl)benzyl)carbamoyl)pyrrolidin-1-yl)-3,3-dimethyl-1-oxobutan-2-yl)-3,6,9,12-tetraoxatetradecanediamide] | small decrease | 2.15 | 1.05 |  | 
2 | Cc1ncsc1-c1ccc(CNC(=O)[C@@H]2C[C@@H](O)CN2C(=O)[C@@H](NC(=O)COCCOCCOCCOCCOCC(=O)N[C@H](C(=O)N2C[C@H](O)C[C@H]2C(=O)NCc2ccc(-c3scnc3C)cc2)C(C)(C)C)C(C)(C)C)cc1 [CM10, N ^1 ,N ^17-bis((S)-1-((2S,4R)-4-hydroxy-2-((4-(4-methylthiazol-5-yl)benzyl)carbamoyl)pyrrolidin-1-yl)-3,3-dimethyl-1-oxobutan-2-yl)-3,6,9,12,15-pentaoxaheptadecanediamide] |  | 0.64 | 1.22 | up to 22% | 
3 | Cc1ncsc1-c1ccc(CNC(=O)[C@@H]2C[C@@H](O)CN2C(=O)[C@@H](NC(=O)COCCOCCOCCOCCOCCOCC(=O)N[C@H](C(=O)N2C[C@H](O)C[C@H]2C(=O)NCc2ccc(-c3scnc3C)cc2)C(C)(C)C)C(C)(C)C)cc1 [CM11, N ^1 ,N ^20-bis((S)-1-((2S,4R)-4-hydroxy-2-((4-(4-methylthiazol-5-yl)benzyl)carbamoyl)pyrrolidin-1-yl)-3,3-dimethyl-1-oxobutan-2-yl)-3,6,9,12,15,18-hexaoxaicosanediamide] |  | 0.60 | 0.94 | up to 22% | up to 73%
